Assay results from patent US20240270809A1, “ORAL GLP RECEPTOR AGONISTS” (priority 2020, published 2024).
Positions of bridges follow the written chain, without caps; N, C: chain ends. Non-standard residues stand in square brackets, D forms with d. Residues, ends and D or L forms follow the SMILES beside them. *: point of attachment. Malonyl(2,2-Me2,histaminyl) = CC(C)(C(=O)NCCc1cnc[nH]1)C(=O)*; Ala(1H-tetrazol-5-yl) = N[C@@H](Cc1nnn[nH]1)C(=O)O; Nle = CCCC[C@H](N)C(=O)O; Aib = CC(C)(N)C(=O)O

Key:
human GLP2 receptor = target: T1, human GLP2 receptor (Homo sapiens, UniProt O95838); test: cAMP accumulation assay, functional agonism of human GLP2 receptor; type: cell-based; conditions: HEK cells infected with human GLP2 receptor BacMam virus, HTRF cAMP; for Emax: HEK293, read-out: Human GLP-2R agonist cAMP Emax; for EC50: read-out: Human GLP-2R agonist cAMP pEC50 (converted)
T1 construct: expressed in transfected cells; host or cells: HEK cells, BacMam virus transduction
T1 sequence (O95838 1-553): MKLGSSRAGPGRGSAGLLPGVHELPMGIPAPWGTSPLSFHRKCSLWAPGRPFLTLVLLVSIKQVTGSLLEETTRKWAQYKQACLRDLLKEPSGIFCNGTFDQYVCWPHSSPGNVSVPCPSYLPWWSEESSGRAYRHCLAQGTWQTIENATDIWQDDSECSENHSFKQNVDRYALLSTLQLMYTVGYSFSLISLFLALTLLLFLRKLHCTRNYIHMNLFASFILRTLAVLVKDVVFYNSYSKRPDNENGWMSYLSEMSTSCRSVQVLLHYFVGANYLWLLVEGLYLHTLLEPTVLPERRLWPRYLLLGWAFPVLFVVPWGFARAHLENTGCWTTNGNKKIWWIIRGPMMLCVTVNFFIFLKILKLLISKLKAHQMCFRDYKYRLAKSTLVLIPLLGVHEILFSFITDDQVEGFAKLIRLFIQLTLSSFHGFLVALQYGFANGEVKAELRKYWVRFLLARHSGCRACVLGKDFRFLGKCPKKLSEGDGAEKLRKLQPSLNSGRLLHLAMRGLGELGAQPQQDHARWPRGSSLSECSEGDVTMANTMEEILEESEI
Method in brief: (§1)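 HTRF cAMP read-out: HEK cells expressing GLP1 or GLP2 receptor via 24 h BacMam infection, frozen before use; agonist exposure 45 min, 37° C, HBSS + 0.5 mM IBMX; stopped with detection reagents in lysis buffer.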

human GLP1 receptor = target: T2, human GLP1 receptor (Homo sapiens, UniProt P43220); test: cAMP accumulation assay, functional agonism of human GLP1 receptor; type: cell-based; conditions: HEK cells infected with human GLP1 receptor BacMam virus, HTRF cAMP; for Emax: HEK293, read-out: Human GLP-1R agonist cAMP Emax; for EC50: read-out: Human GLP-1R agonist cAMP pEC50 (converted)
T2 construct: expressed in transfected cells; host or cells: HEK cells, BacMam virus transduction
T2 sequence (P43220 24-463): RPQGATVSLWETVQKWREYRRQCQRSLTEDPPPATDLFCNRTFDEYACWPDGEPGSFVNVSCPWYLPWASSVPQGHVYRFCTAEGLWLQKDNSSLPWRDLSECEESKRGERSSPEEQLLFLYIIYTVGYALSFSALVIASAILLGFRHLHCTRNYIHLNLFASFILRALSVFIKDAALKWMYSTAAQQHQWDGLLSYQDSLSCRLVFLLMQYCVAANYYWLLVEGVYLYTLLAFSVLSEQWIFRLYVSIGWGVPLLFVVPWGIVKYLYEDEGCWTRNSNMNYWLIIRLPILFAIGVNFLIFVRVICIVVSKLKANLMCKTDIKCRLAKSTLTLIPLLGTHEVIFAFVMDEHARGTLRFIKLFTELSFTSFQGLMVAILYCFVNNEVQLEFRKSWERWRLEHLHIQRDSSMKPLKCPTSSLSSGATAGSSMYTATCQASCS
Method in brief: as §1

[1] = Stability of peptides in Fasted-State Simulated Intestinal Fluid (FaSSIF); type: in vitro ADME; conditions: FaSSIF with 10 mg/ml pancreatin; FaSSIF pH 6.5 with 10 mg/ml pancreatin, 37° C., t = 15 mins
Method: Stability of peptides was tested in Fasted-State Simulated Intestinal Fluid (FaSSIF) prepared according to manufacturer's protocol (Biorelevant, art.no. FFF01, pH 6.5). […] FaSSIF was pre-incubated for 15 min at 37° C. and spiked with test and reference item working solutions. Experiments were conducted in duplicate in a non-serial manner. The total incubation volume per replicate was 150 μl. Sampling time points for test items were 0, 0.5, 2, 5, 10, 15 and 30 min. All samples and calibration standards (prepared in FaSSIF) were precipitated by addition of 300 μl precipitant (ACN / 2% acetic acid / 0.2% HFBA, (precipitation reagent, PR)) containing internal standard (ISTD) to 150 μl sample. After incubation for 1 h at room temperature all samples were centrifuged for 10 min at 2,200×g (room temperature).

| SMILES | Emax (human GLP2 receptor) [%] | EC50 (human GLP2 receptor) [nM] | Emax (human GLP1 receptor) [%] | EC50 (human GLP1 receptor) [nM] | remaining at 0.25 h [1] [%] |
| --- | --- | --- | --- | --- | --- |
| CCCC[C@H](NC(=O)[C@H](CCC(=O)O)NC(=O)[C@H](CC(=O)O)NC(=O)[C@H](CO)NC(=O)[C@H](Cc1ccccc1)NC(=O)[C@H](CO)NC(=O)CNC(=O)[C@H](Cc1nn[nH]n1)NC(=O)C(C)(C)C(=O)NCCc1c[nH]cn1)C(=O)N[C@H](Cc1ccccc1)C(=O)N[C@H](C(=O)N[C@H](C(=O)N[C@@H](CC(C)C)C(=O)N[C@@H](CC(=O)O)C(=O)N[C@H]1CC(=O)NCCCC[C@@H](C(=O)N[C@@H](CC(=O)O)C(=O)N[C@@H](Cc2ccccc2)C(=O)N[C@H](C(=O)N[C@@H](CC(N)=O)C(=O)N[C@@H](Cc2c[nH]c3ccccc23)C(=O)N[C@@H](CC(C)C)C(=O)N[C@H](C(=O)N[C@@H](CCC(N)=O)C(=O)N[C@H](C(=O)N[C@H]2CCC(=O)NCCCC[C@@H](C(N)=O)NC(=O)[C@H]([C@@H](C)O)NC(=O)[C@H]([C@@H](C)CC)NC2=O)[C@@H](C)O)[C@@H](C)CC)[C@@H](C)CC)NC(=O)[C@H](C)NC(=O)[C@H](C)NC(=O)[C@H](CCCCN)NC1=O)[C@@H](C)CC)[C@@H](C)O [Example 106] ({Malonyl(2,2-Me2,histaminyl)}-[Ala(1H-tetrazol-5-yl)]GSFSDE[Nle][dF]TILDDKAAKDFINWLIQTEITK-NH2; lactam 14-18, 28-31; C-terminus assumed) | 102 | 0.501 | 97.2 | 0.316 | 9.6 |
| CCCC[C@H](NC(=O)[C@H](CCC(=O)O)NC(=O)[C@H](CC(=O)O)NC(=O)[C@H](CO)NC(=O)[C@H](Cc1ccccc1)NC(=O)[C@H](CO)NC(=O)CNC(=O)[C@H](Cc1nn[nH]n1)NC(=O)C(C)(C)C(=O)NCCc1c[nH]cn1)C(=O)N[C@H](Cc1ccccc1)C(=O)N[C@H](C(=O)N[C@H](C(=O)N[C@@H](CC(C)C)C(=O)N[C@@H](CC(=O)O)C(=O)N[C@H]1CCC(=O)NCCCC[C@@H](C(=O)N[C@@H](CC(=O)O)C(=O)N[C@@H](Cc2ccccc2)C(=O)N[C@H](C(=O)N[C@@H](CC(N)=O)C(=O)N[C@@H](Cc2c[nH]c3ccccc23)C(=O)N[C@@H](CC(C)C)C(=O)N[C@H](C(=O)N[C@@H](CCC(N)=O)C(=O)N[C@H](C(=O)N[C@H]2CCC(=O)NCCCC[C@@H](C(N)=O)NC(=O)[C@H]([C@@H](C)O)NC(=O)[C@H]([C@@H](C)CC)NC2=O)[C@@H](C)O)[C@@H](C)CC)[C@@H](C)CC)NC(=O)[C@H](C)NC(=O)[C@H](C)NC(=O)[C@H](CCCCN)NC1=O)[C@@H](C)CC)[C@@H](C)O [Example 107] ({Malonyl(2,2-Me2,histaminyl)}-[Ala(1H-tetrazol-5-yl)]GSFSDE[Nle][dF]TILDEKAAKDFINWLIQTEITK-NH2; lactam 14-18, 28-31) | 101 | 0.02 | 96.9 | 0.02 | 7.4 |
| CCCC[C@H](NC(=O)[C@H](CCC(=O)O)NC(=O)[C@H](CC(=O)O)NC(=O)[C@H](CO)NC(=O)[C@H](Cc1ccccc1)NC(=O)[C@H](CO)NC(=O)CNC(=O)[C@H](Cc1nn[nH]n1)NC(=O)C(C)(C)C(=O)NCCc1c[nH]cn1)C(=O)N[C@H](Cc1ccccc1)C(=O)N[C@H]1CCCCNC(=O)C[C@@H](C(=O)N[C@@H](CCCCN)C(=O)N[C@@H](C)C(=O)N[C@@H](C)C(=O)NC(C)(C)C(=O)N[C@@H](CC(=O)O)C(=O)N[C@@H](Cc2ccccc2)C(=O)N[C@H](C(=O)N[C@@H](CC(N)=O)C(=O)N[C@@H](Cc2c[nH]c3ccccc23)C(=O)N[C@@H](CC(C)C)C(=O)N[C@H](C(=O)N[C@@H](CCC(N)=O)C(=O)N[C@H](C(=O)N[C@H]2CCC(=O)NCCCC[C@@H](C(N)=O)NC(=O)[C@H]([C@@H](C)O)NC(=O)[C@H]([C@@H](C)CC)NC2=O)[C@@H](C)O)[C@@H](C)CC)[C@@H](C)CC)NC(=O)[C@H](CC(=O)O)NC(=O)[C@H](CC(C)C)NC(=O)[C@H]([C@@H](C)CC)NC1=O [Example 109] ({Malonyl(2,2-Me2,histaminyl)}-[Ala(1H-tetrazol-5-yl)]GSFSDE[Nle][dF]KILDDKAA[Aib]DFINWLIQTEITK-NH2; lactam 10-14, 28-31) | 102 | 0.00794 | 97 | 0.0251 | 4.6 |
| CCCC[C@H](NC(=O)[C@H](CCC(=O)O)NC(=O)[C@@H]1CCCCNC(=O)CC[C@H](NC(=O)[C@H](CC(=O)O)NC(=O)C(C)(C)NC(=O)[C@@H](N)Cc2c[nH]cn2)C(=O)N[C@@H](CO)C(=O)N[C@@H](Cc2ccccc2)C(=O)N[C@@H](CO)C(=O)N1)C(=O)N[C@H](Cc1ccccc1)C(=O)N[C@H](C(=O)N[C@H](C(=O)N[C@@H](CC(C)C)C(=O)N[C@@H](CC(=O)O)C(=O)N[C@H]1CCCCNC(=O)C[C@@H](C(=O)N[C@@H](CC(=O)O)C(=O)N[C@@H](Cc2ccccc2)C(=O)N[C@H](C(=O)N[C@@H](CC(N)=O)C(=O)N[C@@H](Cc2c[nH]c3ccccc23)C(=O)N[C@@H](CC(C)C)C(=O)N[C@H](C(=O)N[C@@H](CCC(N)=O)C(=O)N[C@H](C(=O)N[C@@H](CCCCN)C(=O)N[C@H](C(=O)N[C@H](C(=O)N[C@@H](CC(=O)O)C(N)=O)[C@@H](C)O)[C@@H](C)CC)[C@@H](C)O)[C@@H](C)CC)[C@@H](C)CC)NC(=O)[C@H](C)NC(=O)[C@H](C)NC(=O)[C@H](CCCCN)NC1=O)[C@@H](C)CC)[C@@H](C)O [Example 110] (H-H[Aib]DESFSKE[Nle][dF]TILDKKAADDFINWLIQTKITD-NH2; lactam 4-8, 16-20; N-terminus and C-terminus assumed) | 103 | 0.0158 | 88.1 | 3.98 | 5 |

Continued, values first:

| Emax (human GLP2 receptor) [%] | EC50 (human GLP2 receptor) [nM] | Emax (human GLP1 receptor) [%] | EC50 (human GLP1 receptor) [nM] | remaining at 0.25 h [1] [%] | SMILES |
| --- | --- | --- | --- | --- | --- |
| 104 | 0.01 | 98.8 | 0.251 | 8.8 | CCCC[C@H](NC(=O)[C@H](CCC(=O)O)NC(=O)[C@H](CC(=O)O)NC(=O)[C@H](CO)NC(=O)[C@H](Cc1ccccc1)NC(=O)[C@H](CO)NC(=O)CNC(=O)[C@H](Cc1nn[nH]n1)NC(=O)C(C)(C)C(=O)NCCc1c[nH]cn1)C(=O)N[C@H](Cc1ccccc1)C(=O)N[C@H]1CCCCNC(=O)C[C@@H](C(=O)N[C@@H](CCCCN)C(=O)N[C@@H](C)C(=O)N[C@@H](C)C(=O)N[C@@H](CCCCN)C(=O)N[C@@H](CC(=O)O)C(=O)N[C@@H](Cc2ccccc2)C(=O)N[C@H](C(=O)N[C@@H](CC(N)=O)C(=O)N[C@@H](Cc2c[nH]c3ccccc23)C(=O)N[C@@H](CC(C)C)C(=O)N[C@H](C(=O)N[C@@H](CCC(N)=O)C(=O)N[C@H](C(=O)N[C@@H](CCCCN)C(=O)N[C@H](C(=O)N[C@H](C(=O)N[C@@H](Cc2ccccc2)C(N)=O)[C@@H](C)O)[C@@H](C)CC)[C@@H](C)O)[C@@H](C)CC)[C@@H](C)CC)NC(=O)[C@H](CC(=O)O)NC(=O)[C@H](CC(C)C)NC(=O)[C@H]([C@@H](C)CC)NC1=O [Example 91] ({Malonyl(2,2-Me2,histaminyl)}-[Ala(1H-tetrazol-5-yl)]GSFSDE[Nle][dF]KILDDKAAKDFINWLIQTKITF-NH2; lactam 10-14) |
| 101 | 0.0251 | 97.4 | 0.0251 | 1.6 | CCCC[C@H](NC(=O)[C@H](CCC(=O)O)NC(=O)[C@H](CC(=O)O)NC(=O)[C@H](CO)NC(=O)[C@H](Cc1ccccc1)NC(=O)[C@H](CO)NC(=O)CNC(=O)[C@H](Cc1nn[nH]n1)NC(=O)C(C)(C)C(=O)NCCc1c[nH]cn1)C(=O)N[C@H](Cc1ccccc1)C(=O)N[C@H]1CCCCNC(=O)C[C@@H](C(=O)N[C@@H](CCCCN)C(=O)N[C@@H](C)C(=O)N[C@@H](C)C(=O)N[C@@H](CCCCN)C(=O)N[C@@H](CC(=O)O)C(=O)N[C@@H](Cc2ccccc2)C(=O)N[C@H](C(=O)N[C@@H](CC(N)=O)C(=O)N[C@@H](Cc2c[nH]c3ccccc23)C(=O)N[C@@H](CC(C)C)C(=O)N[C@H](C(=O)N[C@@H](CCC(N)=O)C(=O)N[C@H](C(=O)N[C@H]2CCC(=O)NCCCC[C@@H](C(N)=O)NC(=O)[C@H]([C@@H](C)O)NC(=O)[C@H]([C@@H](C)CC)NC2=O)[C@@H](C)O)[C@@H](C)CC)[C@@H](C)CC)NC(=O)[C@H](CC(=O)O)NC(=O)[C@H](CC(C)C)NC(=O)[C@H]([C@@H](C)CC)NC1=O [Example 105] ({Malonyl(2,2-Me2,histaminyl)}-[Ala(1H-tetrazol-5-yl)]GSFSDE[Nle][dF]KILDDKAAKDFINWLIQTEITK-NH2; lactam 10-14, 28-31 (inferred); C-terminus assumed) |
